Tests used:
Format in all cases: in vivo
[1] = system: duck salad (Heteranthera limosa); assay: Test B flooded paddy test; settings: Rate 1000 g/ha, scale of 0 to 100 where 0 is no effect and 100 is complete control, visually evaluated after 13 to 15 days
Description: (§1) At the same time, plants selected from these crop and weed species and also blackgrass (Alopecurus myosuroides), wheat (Triticum aestivum) and wild oat (Avena fatua) were treated with postemergence applications of test chemicals formulated in the same manner. Plants ranged in height from 2 to 18 cm (1- to 4-leaf stage) for postemergence treatments. Plant species in the flooded paddy test consisted of rice (Oryza saliva), smallflower flatsedge (Cyperus difformis), duck salad (Heteranthera limosa) and barnyardgrass (Echinochloa crus-galli) grown to the 2-leaf stage for testing. Treated plants and controls were maintained in a greenhouse for 13 to 15 days, after which time all species were compared to controls and visually evaluated. Plant response ratings, summarized in Table B, are based on a scale of 0 to 100 where 0 is no effect and 100 is complete control. A dash (-) response means no test result.

[2] = system: smallflower flatsedge (Cyperus difformis); assay: Test B flooded paddy test; settings: Rate 1000 g/ha, scale of 0 to 100 where 0 is no effect and 100 is complete control, visually evaluated after 13 to 15 days
Description: as §1

[3] = system: barnyardgrass (Echinochloa crus-galli); assay: Test B flooded paddy test; settings: Rate 1000 g/ha, scale of 0 to 100 where 0 is no effect and 100 is complete control, visually evaluated after 13 to 15 days
Description: as §1

[4] = system: rice (Oryza saliva); assay: Test B flooded paddy test; settings: Rate 1000 g/ha, scale of 0 to 100 where 0 is no effect and 100 is complete control, visually evaluated after 13 to 15 days
Description: as §1

[5] = system: giant foxtail (Setaria faberii); assay: Test B preemergence
Procedure, shortened: (§2)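 Greenhouse test: chemicals are formulated in a surfactant-containing non-phytotoxic solvent and applied either preemergence to planted seeds or postemergence to plants 2 to 18 cm tall. Response is rated visually versus controls after 13 to 15 days, 0 meaning no effect and 100 complete control.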

[6] = system: morning glory (Ipomoea hederacea); assay: Test B preemergence
Procedure, shortened: as §2

[7] = system: pigweed (Amaranthus retroflexus); assay: Test B preemergence
Procedure, shortened: as §2

[8] = system: Surinam grass (Brachiaria decumbens); assay: Test B preemergence
Procedure, shortened: as §2

[9] = system: corn (Zea mays); assay: Test B preemergence
Procedure, shortened: as §2

[10] = system: cocklebur (Xanthium strumarium); assay: Test B preemergence
Procedure, shortened: as §2

[11] = system: barnyardgrass (Echinochloa crus-galli); assay: Test B preemergence
Procedure, shortened: as §2

[12] = system: rice (Oryza saliva); assay: Test B preemergence
Procedure, shortened: as §2

[13] = system: lambsquarters (Chenopodium album); assay: Test B preemergence
Procedure, shortened: as §2

[14] = system: crabgrass (Digitaria sanguinalis); assay: Test B preemergence
Procedure, shortened: as §2

[15] = system: velvetleaf (Abutilon theophrasti); assay: Test B postemergence; settings: 13 to 15 days
Procedure, shortened: as §2

[16] = system: giant foxtail (Setaria faberii); assay: Test B postemergence; settings: 13 to 15 days
Procedure, shortened: as §2

[17] = system: morning glory (Ipomoea hederacea); assay: Test B postemergence; settings: 13 to 15 days
Procedure, shortened: as §2

[18] = system: pigweed (Amaranthus retroflexus); assay: Test B postemergence; settings: 13 to 15 days
Procedure, shortened: as §2

[19] = system: Surinam grass (Brachiaria decumbens); assay: Test B postemergence; settings: 13 to 15 days
Procedure, shortened: as §2

[20] = system: corn (Zea mays); assay: Test B postemergence; settings: 13 to 15 days
Procedure, shortened: as §2

[21] = system: blackgrass (Alopecurus myosuroides); assay: Test B postemergence; settings: 13 to 15 days
Procedure, shortened: as §2

[22] = system: cocklebur (Xanthium strumarium); assay: Test B postemergence; settings: 13 to 15 days
Procedure, shortened: as §2

[23] = system: barnyardgrass (Echinochloa crus-galli); assay: Test B postemergence; settings: 13 to 15 days
Procedure, shortened: as §2

[24] = system: wild oat (Avena fatua); assay: Test B postemergence; settings: 13 to 15 days
Procedure, shortened: as §2

[25] = system: wheat (Triticum aestivum); assay: Test B postemergence; settings: 13 to 15 days
Procedure, shortened: as §2

[26] = system: lambsquarters (Chenopodium album); assay: Test B postemergence; settings: 13 to 15 days
Procedure, shortened: as §2

[27] = system: crabgrass (Digitaria sanguinalis); assay: Test B postemergence; settings: 13 to 15 days
Procedure, shortened: as §2

[28] = system: duck salad (Heteranthera limosa); assay: Test C flooded paddy test; settings: for Ducksalad plant response rating: Flooded Paddy, scale 0 to 100, 0 no effect, 100 complete control; for Plant response rating, Ducksalad: flooded paddy test, scale 0 to 100 (0 no effect, 100 complete control)
Procedure, shortened: (§3)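 Each species was cultivated to 2 leaves in flooded paddy pots, then treated. After a greenhouse period of 12–14 days, the plants were scored visually relative to controls from 0 (no effect) to 100 (complete control).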

[29] = system: smallflower flatsedge (Cyperus difformis); assay: Test C flooded paddy test; settings: for Flatsedge plant response rating: Flooded Paddy, scale 0 to 100, 0 no effect, 100 complete control; for Plant response rating, Flatsedge: flooded paddy test, scale 0 to 100 (0 no effect, 100 complete control)
Procedure, shortened: as §3

[30] = system: barnyardgrass (Echinochloa crus-galli); assay: Test C flooded paddy test; settings: for Barnyardgrass plant response rating: Flooded Paddy, scale 0 to 100, 0 no effect, 100 complete control; for Plant response rating, Barnyardgrass: flooded paddy test, scale 0 to 100 (0 no effect, 100 complete control)
Procedure, shortened: as §3

[31] = system: rice (Oryza saliva); assay: Test C flooded paddy test; settings: for Rice plant response rating: Flooded Paddy, scale 0 to 100, 0 no effect, 100 complete control; for Plant response rating, Rice: flooded paddy test, scale 0 to 100 (0 no effect, 100 complete control)
Procedure, shortened: as §3

[32] = system: velvetleaf (Abutilon theophrasti); assay: Test B preemergence
Procedure, shortened: as §2

[33] = Preemergence, Rate 500 g/ha, scale 0 to 100, 0 no effect, 100 complete control
[34] = preemergence, Rate 125 g/ha, scale 0 to 100, 0 no effect, 100 complete control
[35] = Rate 125 g/ha, scale 0 (no effect) to 100 (complete control)
[36] = Rate 500 g/ha, scale 0 to 100, 0 is no effect, 100 is complete control
[37] = preemergence, Rate 125 g/ha, scale of 0 to 100 where 0 is no effect and 100 is complete control, 13 to 15 days

O=C1C(n2cccn2)SCN1c1cccc(C(F)(F)F)c1 (centres unmarked) [Compound 18]
Plant response rating, Ducksalad [1]: 0 | Plant response rating, Flatsedge [2]: 0 | Plant response rating, Barnyardgrass [3]: 0 | Plant response rating, Rice [4]: 0 | Plant response rating, Foxtail, Giant [5, 33]: 0 | Plant response rating, Foxtail, Giant [5, 34]: 0 | Plant response rating, Morningglory [6, 33]: 0 | Plant response rating, Morningglory [6, 34]: 0 | Plant response rating, Pigweed [7, 33]: 0 | Plant response rating, Pigweed [7, 34]: 0 | Plant response rating, Surinam grass [8, 33]: 0 | Plant response rating, Surinam grass [8, 34]: 0 | Plant response rating, Corn [9, 33]: 0 | Plant response rating, Corn [9, 34]: 0 | Plant response rating, Cocklebur [10, 33]: 0 | Plant response rating, Cocklebur [10, 34]: 0 | Plant response rating, Barnyardgrass [11, 33]: 0 | Plant response rating, Barnyardgrass [11, 34]: 0 | Plant response rating, Rice [12, 33]: 0 | Plant response rating, Rice [12, 34]: 0 | Plant response rating, Lambsquarters [13, 34]: 0 | Plant response rating, Crabgrass [14, 33]: 0 | Plant response rating, Crabgrass [14, 34]: 0 | Plant response rating, Velvetleaf [15, 35]: 0 | Plant response rating, Velvetleaf [15, 36]: 20 | Plant response rating, Foxtail, Giant [16, 35]: 0 | Plant response rating, Foxtail, Giant [16, 36]: 0 | Plant response rating, Morningglory [17, 35]: 10 | Plant response rating, Morningglory [17, 36]: 10 | Plant response rating, Pigweed [18, 35]: 0 | Plant response rating, Pigweed [18, 36]: 0 | Plant response rating, Surinam grass [19, 35]: 0 | Plant response rating, Surinam grass [19, 36]: 0 | Plant response rating, Corn [20, 35]: 0 | Plant response rating, Corn [20, 36]: 0 | Plant response rating, Blackgrass [21, 35]: 0 | Plant response rating, Blackgrass [21, 36]: 0 | Plant response rating, Cocklebur [22, 35]: 0 | Plant response rating, Cocklebur [22, 36]: 20 | Plant response rating, Barnyardgrass [23, 35]: 0 | Plant response rating, Barnyardgrass [23, 36]: 0 | Plant response rating, Wild Oat [24, 35]: 0 | Plant response rating, Wild Oat [24, 36]: 0 | Plant response rating, Wheat [25, 35]: 0 | Plant response rating, Wheat [25, 36]: 0 | Plant response rating, Lambsquarters [26, 35]: 60 | Plant response rating, Lambsquarters [26, 36]: 70 | Plant response rating, Crabgrass [27, 35]: 0 | Plant response rating, Crabgrass [27, 36]: 0

COc1cccc(N2CCC(n3ccc(C(C)(C)C)n3)C2=O)c1 (centres unmarked) [Compound 57]
Plant response rating, Ducksalad [1]: 100 | Plant response rating, Flatsedge [2]: 100 | Plant response rating, Barnyardgrass [3]: 100 | Plant response rating, Rice [4]: 90

CC(C)(C)c1ccn(C2CCN(c3ccc(F)c(Cl)c3)C2=O)n1 (centres unmarked) [Compound 46]
Ducksalad plant response rating ([28]; Rate 250 g/ha): 20 | Ducksalad plant response rating ([28]; Rate 500 g/ha): 50 | Plant response rating, Ducksalad ([28]; Rate 62 g/ha): 0 | Plant response rating, Ducksalad ([28]; Rate 125 g/ha): 0 | Flatsedge plant response rating ([29]; Rate 250 g/ha): 90 | Flatsedge plant response rating ([29]; Rate 500 g/ha): 100 | Plant response rating, Flatsedge ([29]; Rate 62 g/ha): 80 | Plant response rating, Flatsedge ([29]; Rate 125 g/ha): 90 | Barnyardgrass plant response rating ([30]; Rate 250 g/ha): 50 | Barnyardgrass plant response rating ([30]; Rate 500 g/ha): 60 | Plant response rating, Barnyardgrass ([30]; Rate 62 g/ha): 0 | Plant response rating, Barnyardgrass ([30]; Rate 125 g/ha): 20 | Rice plant response rating ([31]; Rate 250 g/ha): 0 | Rice plant response rating ([31]; Rate 500 g/ha): 40 | Plant response rating, Rice ([31]; Rate 62 g/ha): 0 | Plant response rating, Rice ([31]; Rate 125 g/ha): 0 | Plant response rating, Ducksalad [1]: 70 | Plant response rating, Barnyardgrass [3]: 100 | Plant response rating, Rice [4]: 90 | Plant response rating, Velvetleaf [32, 33]: 0 | Plant response rating, Velvetleaf [32, 37]: 0 | Plant response rating, Foxtail, Giant [5, 33]: 0 | Plant response rating, Foxtail, Giant [5, 37]: 0 | Plant response rating, Morningglory [6, 37]: 0 | Plant response rating, Pigweed [7, 33]: 100 | Plant response rating, Pigweed [7, 37]: 100 | Plant response rating, Surinam grass [8, 33]: 0 | Plant response rating, Surinam grass [8, 37]: 0 | Plant response rating, Corn [9, 33]: 0 | Plant response rating, Corn [9, 37]: 0 | Plant response rating, Cocklebur [10, 33]: 0 | Plant response rating, Cocklebur [10, 37]: 0 | Plant response rating, Barnyardgrass [11, 33]: 80 | Plant response rating, Barnyardgrass [11, 37]: 0 | Plant response rating, Rice [12, 33]: 0 | Plant response rating, Rice [12, 37]: 0 | Plant response rating, Lambsquarters [13, 33]: 100 | Plant response rating, Lambsquarters [13, 37]: 100 | Plant response rating, Crabgrass [14, 33]: 0 | Plant response rating, Crabgrass [14, 37]: 0 | Plant response rating, Velvetleaf [15, 35]: 0 | Plant response rating, Velvetleaf [15, 36]: 0 | Plant response rating, Foxtail, Giant [16, 35]: 0 | Plant response rating, Foxtail, Giant [16, 36]: 0 | Plant response rating, Morningglory [17, 35]: 0 | Plant response rating, Morningglory [17, 36]: 0 | Plant response rating, Pigweed [18, 35]: 0 | Plant response rating, Pigweed [18, 36]: 0 | Plant response rating, Surinam grass [19, 35]: 0 | Plant response rating, Surinam grass [19, 36]: 0 | Plant response rating, Corn [20, 35]: 0 | Plant response rating, Corn [20, 36]: 0 | Plant response rating, Blackgrass [21, 35]: 0 | Plant response rating, Blackgrass [21, 36]: 0 | Plant response rating, Cocklebur [22, 35]: 0 | Plant response rating, Cocklebur [22, 36]: 0 | Plant response rating, Barnyardgrass [23, 35]: 0 | Plant response rating, Barnyardgrass [23, 36]: 0 | Plant response rating, Wild Oat [24, 35]: 0 | Plant response rating, Wild Oat [24, 36]: 0 | Plant response rating, Wheat [25, 35]: 0 | Plant response rating, Wheat [25, 36]: 0 | Plant response rating, Lambsquarters [26, 35]: 0 | Plant response rating, Lambsquarters [26, 36]: 70 | Plant response rating, Crabgrass [27, 35]: 0 | Plant response rating, Crabgrass [27, 36]: 0

From patent publication US7138361B2, “Herbicidal heterocycles” (E. I. du Pont de Nemours and Company, priority 2000, dated 2006)
